80 molecules from the METLIN SMRT retention time set (Domingo-Almenara et al. 2019) can be followed below.

The data set in a line: gradient 5% acetonitrile 3 min, to 50% in 2 min, to 85% in 15 min, held 3 min, 100 µL/min. The following applies: column: Zorbax Extend-C18 2.1 x 50 mm; eluents: water / acetonitrile, 0.1% formic acid. The procedure, abridged: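 Retention times of pure standards were taken from adduct peaks that were selected by computer and manually inspected. Over 3 months, mixtures of ~100 molecules were run by HPLC–quadrupole time-of-flight mass spectrometry in positive and negative ionization mode. The Zorbax Extend-C18 column (2.1 × 50 mm, 1.8 μm) ran at 100 μL/min in water and acetonitrile, each containing 0.1% formic acid, with 40 μL dead volume and 900 μL dwell volume.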
`CC1C(=O)NCCN1C(=O)Cc1ccc2c(c1)OCO2` (stereo not given) returned an RP-LC retention time of 600 s.

Take `CC(CNC(=O)c1cc2sc(Cl)cc2n1C)c1ccccc1` (stereo not given): the RP-LC retention time is 1110 s.

Take `O=S(=O)(/C=C/c1ccccc1)NCC1CCN(Cc2ccsc2)CC1`: the RP-LC retention time turned out to be 586 s.

Consider `Cc1nn(CC(=O)N2CCN(c3ccccn3)CC2)c(=O)c2c1sc1ccccc12`, for which the RP-LC retention time came out at 640 s.

In the case of `O=C(NC1CCN(c2cc(-c3ccccc3)[nH]n2)C1)c1ccc(F)c(F)c1` (stereo not given), the RP-LC retention time was determined as 739 s.

As to `CCc1nc(N)n(CC(=O)NCc2ccc(C)cc2)c(=O)c1C`, the RP-LC retention time is 642 s.

Turning to `O=C(Nc1ccccc1Br)c1ccc(OC(F)F)cc1`, the RP-LC retention time was determined as 914 s.

On to `Cn1c(=O)n(CCN2CCCCC2)c(=O)c2c1nc1n2CCCN1c1ccc(Cl)cc1`, for which the RP-LC retention time amounted to 668 s.

In turn, `CCN1CCN(Cc2nc(-c3ccc(N(C)Cc4ccccc4)nc3)no2)CC1` displayed an RP-LC retention time of 892 s.

The molecule `CCCN(Cc1cccs1)C(=O)C1CCc2nc(N3CCC(C)CC3)ncc2C1` (stereo not given) registered an RP-LC retention time of 979 s.

In turn, `Cc1c(Cl)cccc1NC(=O)/C=C/c1ccccc1` had an RP-LC retention time of 947 s.

On to `O=C(Cc1cccc(F)c1)N1CCC2(CC1)N=C(c1ccc(Cl)cc1)NO2`, for which the RP-LC retention time was found to be 912 s.

On to `COc1ccccc1N1CCN(c2cc(SCC(=O)Nc3c(C)cc(C)cc3C)ncn2)CC1`, for which the RP-LC retention time amounted to 1040 s.

Molecule `CCN(CC)C(=O)N1CCO[C@@H](COc2ccccn2)[C@@H]1c1ccccc1` registered an RP-LC retention time of 898 s.

In turn, `O=C(c1cc(F)ccc1F)N1CCN(C(=O)c2nnn3c2COC(c2ccc(Cl)cc2)C3)CC1` (stereo not given) gave an RP-LC retention time of 937 s.

Molecule `O=C(O)C(Cc1ccccc1)NS(=O)(=O)c1ccc(Cl)c(C(F)(F)F)c1` (stereo not given) displayed an RP-LC retention time of 887 s.

Take `Cc1[nH]c(-c2ccccc2)cc1C(=O)NC1CCCCC1`: the RP-LC retention time is 898 s.

On to `CCc1nnc(NC(=O)C2CCN(C(=O)c3ccccc3F)CC2)s1`, for which the RP-LC retention time came to 675 s.

Take `Cc1noc2ncnc(N3CCCC(C(=O)N4CCCc5ccccc54)C3)c12` (stereo not given): the RP-LC retention time was determined as 878 s.

For `CC(=O)Nc1ccc(C(=O)N2CCN(c3cc(-c4ccc(Cl)cc4)[nH]n3)CC2)cc1`, the RP-LC retention time was determined as 708 s.

Molecule `CCNC(=O)c1cnn(-c2cc(-c3nc(C4CC4)no3)ccn2)c1C` returned an RP-LC retention time of 826 s.

As for `O=C(C(=O)N1CCc2ccccc2C1)c1c[nH]c2ccccc12`, the RP-LC retention time was 836 s.

For the molecule `O=S(=O)(c1cc(-c2nnc(C3CCC3)o2)co1)N1CCC(N2CCCCC2)CC1`, the RP-LC retention time was determined as 642 s.

Molecule `O=c1cc(Cn2nc3ccc(-c4ccc(Cl)cc4)nn3c2=O)nc2ccccn12` came in with an RP-LC retention time of 676 s.

`Cc1noc(/C=C\c2ccc(S(=O)(=O)N3CCN(C)CC3)cc2)c1NC(=O)C1CC1` had an RP-LC retention time of 617 s.

Molecule `Cc1ccc(NC(=O)Cn2cccc2-c2nnc(C3CCC3)o2)cc1` had an RP-LC retention time of 926 s.

Molecule `O=C(NC(c1ccccc1)c1nnc(N2CCOCC2)o1)c1ccccc1F` (stereo not given) gave an RP-LC retention time of 733 s.

`CCNC(=O)C[C@@H]1N=C(c2ccc(Cl)cc2)c2cc(OC)ccc2-n2c(C)nnc21` displayed an RP-LC retention time of 797 s.

Molecule `CCc1cc(=O)n(CC(=O)NCc2ccc(F)cc2F)c(N)n1` came in with an RP-LC retention time of 812 s.

As for `COc1ccc(C(=O)N2CCC3(CC2)NCc2ccccc2-n2ccnc23)cc1OC`, the RP-LC retention time came out at 594 s.

Take `Cc1cc(C)nc(-n2nc(C)cc2N)n1`: the RP-LC retention time was determined as 577 s.

`CCc1cc(=O)oc2cc(C)cc(OC(C)C(=O)N3CCC4(O)CCCCC4C3)c12` (stereo not given) displayed an RP-LC retention time of 817 s.

The molecule `O=C(CCn1nnc2cc(-c3noc(COc4ccc(Cl)cc4)n3)ccc21)N1CCCC1` displayed an RP-LC retention time of 942 s.

`O=C1NC(=S)S/C1=C\c1cc(Br)ccc1OCc1ccccc1Br` registered an RP-LC retention time of 1270 s.

As to `Cc1noc(C)c1S(=O)(=O)N1CCCC(c2nc(CNC(=O)C(C)C)cs2)C1` (stereo not given), the RP-LC retention time turned out to be 796 s.

Consider `O=C(NCc1ccc(F)cc1)C1CCCN(c2ncnc3c2nc2n3CCCCC2)C1` (stereo not given), for which the RP-LC retention time was determined as 759 s.

Regarding `COc1ccc(OC)c(S(=O)(=O)NCCc2ncc(C)n2C(C)C)c1`, the RP-LC retention time stood at 540 s.

`CC1CCCCN1CCNS(=O)(=O)c1ccccc1-c1nc(-c2ccc(F)cc2)no1` (stereo not given): the RP-LC retention time was determined as 755 s.

In turn, `CN1C(=O)C(=C2CCCC2)c2cc(S(=O)(=O)N3CCN(c4ccccn4)CC3)ccc21` yielded an RP-LC retention time of 710 s.

Molecule `COc1ccccc1C(=O)N1CCC2(CC1)c1nccn1-c1ccccc1CN2CC(C)C` registered an RP-LC retention time of 692 s.

Molecule `Cc1nc(C)c(-c2nnc(NC(=O)c3cc(=O)c4ccccc4o3)o2)s1` registered an RP-LC retention time of 653 s.

Take `NS(=O)(=O)c1ccc(NC(=O)CSc2nnc3ccc4ccccc4n23)cc1`: the RP-LC retention time was found to be 652 s.

Take `O=C(CCc1nnc2c3cc(-c4ccccc4)nn3ccn12)N1CCC2(CC1)OCCO2`: the RP-LC retention time was 686 s.

As for `CC(=O)Nc1ccc(Br)cc1C(=O)C(=O)NCCc1c[nH]c2ccccc12`, the RP-LC retention time worked out at 876 s.

`CCN1C(=O)Cc2cc(C(=O)N3CCN(C4CCCCC4)CC3)ccc21`: the RP-LC retention time was 583 s.

As for `CCOc1ccccc1NC(=O)CSc1nnc2c3cc(-c4ccc(C)c(C)c4)nn3ccn12`, the RP-LC retention time worked out at 1090 s.

The molecule `O=S(=O)(c1ccc(F)cc1Cl)N1CCCn2nc(-c3cccnc3)cc2C1` showed an RP-LC retention time of 687 s.

In turn, `CC(=O)N1CCc2ccccc2C1C(=O)NC1CCCCCC1` (stereo not given) showed an RP-LC retention time of 831 s.

The molecule `CCN(CC)S(=O)(=O)c1ccc2c(c1)N(CC(=O)NCCN(C)C)C(=O)C1CCCCN21` (stereo not given) had an RP-LC retention time of 633 s.

For the molecule `CN(C)[C@@H]1CN(Cc2cccc(C#N)c2)C[C@H]1CO`, the RP-LC retention time was 518 s.

The molecule `Cn1cc(S(=O)(=O)N2CCC(C(=O)N3CCc4ccccc43)CC2)cc1C(=O)N1CCCC1` showed an RP-LC retention time of 805 s.

`CCOC(=O)c1c(NC(=O)C2CCN(S(=O)(=O)Cc3ccccc3)CC2)sc2c1CCCC2`: the RP-LC retention time was 1340 s.

Molecule `Cn1cc(S(=O)(=O)N2CCC(C(=O)Nc3ccccn3)CC2)cc1C(=O)N1CCCC1` yielded an RP-LC retention time of 635 s.

`c1cc(-c2nc(-c3ccc4nncn4c3)no2)co1` came in with an RP-LC retention time of 679 s.

As for `O=[N+]([O-])c1ccc(-c2csc(Nc3ccccc3)n2)cc1`, the RP-LC retention time is 1130 s.

Regarding `Cc1cccc2c(C(N)=O)c3c(nc12)CCC3`, the RP-LC retention time came to 560 s.

Turning to `Cc1ccc(-c2cc3c(=O)n(Cc4noc(CN5CCCCCCC5)n4)ccn3n2)cc1C`, the RP-LC retention time is 806 s.

Molecule `COc1ccccc1NC(=O)N1CCCC1c1nncn1C1CCCC1` (stereo not given) registered an RP-LC retention time of 697 s.

Regarding `COc1ccc(Br)cc1CNC(=O)Cn1cnc2onc(C)c2c1=O`, the RP-LC retention time is 815 s.

In turn, `COCC(=O)N1CCCC(c2nc(CNC(=O)C3CCC3)cs2)C1` (stereo not given) came in with an RP-LC retention time of 597 s.

On to `Cc1nc(-c2cn(C(C)C)c3ncccc23)sc1C(=O)NCc1cccnc1`, for which the RP-LC retention time amounted to 657 s.

Molecule `CN(CCc1noc(C2CN(Cc3cc(Cl)ccc3F)C2)n1)S(C)(=O)=O` yielded an RP-LC retention time of 608 s.

The molecule `O=C(Cn1cnc2c(sc3nc(-c4ccccc4)ccc32)c1=O)Nc1cccc(Br)c1` displayed an RP-LC retention time of 1110 s.

For `Cc1ccc(CNC(=O)C2(C)Oc3cccnc3N(C)C2=O)cc1` (stereo not given), the RP-LC retention time was 806 s.

Take `Cc1cc(C)cc(NC(=O)NC2CCN(c3ccccc3)C2=O)c1` (stereo not given): the RP-LC retention time worked out at 697 s.

Regarding `CC(C)(C)c1cccc(Nc2nc3ccncc3n(Cc3ccccc3)c2=O)c1`, the RP-LC retention time was determined as 963 s.

Molecule `COc1cc(NS(=O)(=O)c2c[nH]c3ncccc23)cc(OC)c1` displayed an RP-LC retention time of 707 s.

Turning to `COc1ccc(CC(=O)N2C[C@@H]3C[C@H]2C[C@@H]3NC(=O)c2ccccc2)c(Cl)c1`, the RP-LC retention time came out at 738 s.

`CCOC(=O)c1[nH]c(C)c(CCC(=O)NCCN2CCN(C)CC2)c1C` had an RP-LC retention time of 547 s.

With `Cc1ccc(NC(=O)N2CCc3nc[nH]c3C2)c(C)c1`, the RP-LC retention time is 578 s.

With `CCOC(=O)c1sc(NC(=O)C2CCCO2)nc1-c1ccccc1` (stereo not given), the RP-LC retention time is 950 s.

Molecule `CCN(CC)CCNC(=O)c1ccnc(-c2cccs2)c1` registered an RP-LC retention time of 597 s.

Take `Cc1cc(=O)n(CC(=O)Nc2ccc(F)cc2F)c(-c2ccc(F)cc2)n1`: the RP-LC retention time was determined as 1050 s.

Regarding `O=C(CN1CN(c2ccccc2)c2ncccc2S1(=O)=O)Nc1ccccc1Cl`, the RP-LC retention time was determined as 934 s.

Take `COc1ccc(NC(=O)N(C)CC2CCOCC2)cc1Cl`: the RP-LC retention time came out at 712 s.

`O=C(c1ccc(S(=O)(=O)c2ccc(Br)cc2)nc1)N1CCN(c2ccccn2)CC1` came in with an RP-LC retention time of 673 s.

The molecule `CCOC(=O)C(C)Sc1nnc(CNC(=O)c2ccc(OC)cc2)n1C1CCCCC1` (stereo not given) returned an RP-LC retention time of 805 s.

`O=C(C1CC(=O)N(c2n[nH]c3cccc(F)c23)C1)N1CCN(c2cccc(Cl)c2)CC1` (stereo not given) gave an RP-LC retention time of 837 s.

`Cc1cc2c(=O)n(CC(=O)N3CCCc4ccccc43)c3cccnc3n2n1` displayed an RP-LC retention time of 767 s.

On to `CC(C)OCCCNC(=O)C1CCCN(c2ccc(=O)n(-c3cccc(Cl)c3)n2)C1` (stereo not given), for which the RP-LC retention time was found to be 789 s.
